# According to ChEMBL document CHEMBL1201862, “PubChem BioAssay data set” (2004):
# Activity calls are given as the source filed them.
# What was measured:
# [1] = target: T1, Heat shock factor protein 1 (Mus musculus, UniProt P38532); test: enhancement of HSF1-driven luciferase signal – cell-based, NIH3T3, luminescence, dose retest, confirmation (AID 435004); type: functional;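 further: stress induced by proteasome inhibitor MG132 added 30 min after compound; luciferase reporter driven by HSF1 response element in NIH3T3 cells; actives raise luminescence as potentiators of the MG132 stress response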
# T1 sequence (P38532 whole entry): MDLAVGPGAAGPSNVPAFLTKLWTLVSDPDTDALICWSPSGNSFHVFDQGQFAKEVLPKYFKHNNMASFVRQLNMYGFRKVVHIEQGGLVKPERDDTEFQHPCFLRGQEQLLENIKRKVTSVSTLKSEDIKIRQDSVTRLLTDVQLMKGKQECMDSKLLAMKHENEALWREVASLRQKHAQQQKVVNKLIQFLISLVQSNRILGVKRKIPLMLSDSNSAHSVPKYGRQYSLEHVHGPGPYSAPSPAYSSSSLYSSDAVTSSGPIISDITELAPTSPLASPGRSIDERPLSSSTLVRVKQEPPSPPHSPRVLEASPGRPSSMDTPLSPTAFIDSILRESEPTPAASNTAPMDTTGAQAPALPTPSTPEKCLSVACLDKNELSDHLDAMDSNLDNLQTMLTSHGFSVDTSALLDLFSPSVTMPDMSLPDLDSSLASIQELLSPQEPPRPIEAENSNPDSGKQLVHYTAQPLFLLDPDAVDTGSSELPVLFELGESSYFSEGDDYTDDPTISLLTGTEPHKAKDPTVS
# [2] = target: ATP-dependent molecular chaperone HSP82 (Candida albicans (strain WO-1) (Yeast), UniProt C4YTQ8); test: steroid-induced GRE reporter decrease in yeast – S. cerevisiae, luminescence, Hsp90 inhibitor project, dose response (AID 2400); type: functional, cell-based;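 further: beta-galactosidase luminescence from glucocorticoid response element reporter as proxy for Hsp90 function; inhibitor potency where signal loss means Hsp90 inhibition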
# [3] = target: Serine/threonine-protein phosphatase (Candida dubliniensis (strain CD36 / CBS 7987 / NCPF 3949 / NRRLY-17841) (Yeast), UniProt B9W6M3); test: blockers of CaCl2-induced CDRE-lacZ signaling – S. cerevisiae, luminescence, secondary, dose response (AID 2388); type: functional, cell-based;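 further: yeast reporter cells carrying a calcineurin-responsive lacZ construct stimulated with calcium chloride; luminescent beta-galactosidase reporter signal in whole cells rather than isolated phosphatase activity; potency for inhibition where a drop in reporter signal means calcineurin blockade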
# [4] = fluconazole-exposed Candida albicans growth modulators – fluorescence, retest, confirmation (AID 2467); type: functional, cell-based
# [5] = NIH-3T3 fibroblast cytotoxicity, dose response, cytotoxicity control, cell-based, fluorescence, Alamar Blue, secondary assay (AID 2327); type: functional;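 further: NIH-3T3 mouse fibroblasts cultured with fluconazole at 8 µg/mL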
# [6] = target: Luciferin 4-monooxygenase (Photuris pensylvanica, UniProt Q27757); test: inhibition of Cell Titer Glo luciferase signal – biochemical, luminescence, cherry-picks, counter-screen for HSF-1 reporter inhibitor project, dose response (AID 588847)
# [7] = blockers of bursicon-stimulated LGR2 cAMP reporter – cell-based, HEK293, CRE-luciferase reporter, cherry pick, set 2, dose response (AID 743343); type: functional;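 further: transfected cells were stimulated with diluted bursicon conditioned medium after compound addition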
# [8] = target: T1, Heat shock factor protein 1; test: decrease of HSF1-responsive luciferase luminescence – cell-based, NIH3T3, dose retest, confirmation (AID 2382); type: functional;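 further: NIH3T3 fibroblasts with HSF1-driven luciferase reporter stressed by proteasome inhibitor MG132; luminescence from HSF1-driven luciferase expression after 8 hours of MG132 stress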
# [9] = viability loss in HEK293 cells – cell-based, plate reader, cherry-picked samples, cytotoxicity control, dose response (AID 743446); type: functional
# [10] = blockade of melanocortin 4 receptor signaling – cell-based, plate reader, cherry pick, counter-screen for LGR2 antagonist project, dose response (AID 743444); type: functional;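 further: transfected HEK 293 cells stimulated with alpha-MSH peptide; potency of inhibitors of the alpha-MSH evoked signal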
# [11] = HEK-293T viability loss after treatment – luminescence, T-cell screen hits, cytotoxicity control for TCR NF-kB inhibitor project, dose response (AID 489026); type: functional, cell-based;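 further: cells exposed to compound about 14 hours before the viability readout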
# [12] = A549 cell cytotoxicity, dose response, cytotoxicity control, plate reader, cherry-pick, antagonist series (AID 743412); type: functional, cell-based
# [13] = target: T2, Replicative DNA helicase DnaB (Mycobacterium tuberculosis, UniProt P9WMR3); test: DnaB intein splicing inhibitors, dose response, biochemical, cell-free fluorescence (AID 449749); type: functional
# T2 sequence (P9WMR3 whole entry): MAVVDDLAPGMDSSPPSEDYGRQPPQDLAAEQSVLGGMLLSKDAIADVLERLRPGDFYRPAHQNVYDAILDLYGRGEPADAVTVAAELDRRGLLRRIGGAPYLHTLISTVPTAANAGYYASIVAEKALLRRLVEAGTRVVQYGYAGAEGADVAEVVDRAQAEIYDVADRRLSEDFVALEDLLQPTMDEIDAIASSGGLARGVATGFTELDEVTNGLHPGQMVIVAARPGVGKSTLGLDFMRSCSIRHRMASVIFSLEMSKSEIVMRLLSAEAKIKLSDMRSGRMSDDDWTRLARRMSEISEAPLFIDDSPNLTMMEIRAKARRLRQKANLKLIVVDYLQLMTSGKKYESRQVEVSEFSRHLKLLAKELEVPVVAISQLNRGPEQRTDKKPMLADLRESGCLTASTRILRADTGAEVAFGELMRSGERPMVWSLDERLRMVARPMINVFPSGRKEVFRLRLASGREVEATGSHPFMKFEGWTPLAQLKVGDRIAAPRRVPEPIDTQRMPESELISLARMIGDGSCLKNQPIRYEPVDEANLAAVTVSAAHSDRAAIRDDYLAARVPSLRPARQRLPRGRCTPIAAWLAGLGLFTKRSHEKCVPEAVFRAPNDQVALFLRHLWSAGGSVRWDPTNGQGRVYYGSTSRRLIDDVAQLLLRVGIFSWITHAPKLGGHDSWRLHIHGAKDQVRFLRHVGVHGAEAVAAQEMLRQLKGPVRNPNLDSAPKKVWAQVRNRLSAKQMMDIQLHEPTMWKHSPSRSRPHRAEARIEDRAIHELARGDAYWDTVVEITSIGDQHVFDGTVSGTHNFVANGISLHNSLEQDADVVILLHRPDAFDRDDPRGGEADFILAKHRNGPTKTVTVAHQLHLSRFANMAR
# [14] = target: Intestinal-type alkaline phosphatase (Homo sapiens, UniProt P09923); test: inhibition of human intestinal alkaline phosphatase – biochemical, dose response (AID 488876); type: functional
# [15] = target: T3, Alkaline phosphatase, tissue-nonspecific isozyme (Homo sapiens, UniProt P05186); test: TNAP enzyme inhibition by screening hits, dose response, selectivity assay for mouse IAP inhibitor project, biochemical, human TNAP, uHTS hits (AID 488906); type: functional
# T3 sequence (P05186 whole entry): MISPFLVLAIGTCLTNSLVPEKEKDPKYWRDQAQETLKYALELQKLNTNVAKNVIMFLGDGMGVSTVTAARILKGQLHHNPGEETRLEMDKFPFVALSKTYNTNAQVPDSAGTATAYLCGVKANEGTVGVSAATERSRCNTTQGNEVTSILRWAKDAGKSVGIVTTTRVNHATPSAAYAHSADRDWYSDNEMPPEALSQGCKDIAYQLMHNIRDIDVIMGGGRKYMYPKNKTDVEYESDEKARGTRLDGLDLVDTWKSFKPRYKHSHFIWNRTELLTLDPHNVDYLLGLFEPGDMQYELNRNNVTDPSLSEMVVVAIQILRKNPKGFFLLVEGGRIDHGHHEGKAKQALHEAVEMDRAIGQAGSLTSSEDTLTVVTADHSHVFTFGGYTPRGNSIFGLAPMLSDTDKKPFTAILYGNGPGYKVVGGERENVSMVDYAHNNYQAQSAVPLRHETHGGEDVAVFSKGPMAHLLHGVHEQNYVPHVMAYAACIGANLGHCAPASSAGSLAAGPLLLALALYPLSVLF
# [16] = target: Intestinal-type alkaline phosphatase (Mus musculus, UniProt P24822); test: PubChem AID 488785; type: functional
# [17] = target: T4, Protein RecA (Mycobacterium tuberculosis, UniProt P9WHJ3); test: Fluorescence Cell-Free Homogeneous Dose Retest to Identify Inhibitors of RecA-Intein Splicing Activity. [Related pubchem assays (depositor defined):AID2097, AID2223, AID489010, AID492950]; type: functional
# T4 sequence (P9WHJ3 whole entry): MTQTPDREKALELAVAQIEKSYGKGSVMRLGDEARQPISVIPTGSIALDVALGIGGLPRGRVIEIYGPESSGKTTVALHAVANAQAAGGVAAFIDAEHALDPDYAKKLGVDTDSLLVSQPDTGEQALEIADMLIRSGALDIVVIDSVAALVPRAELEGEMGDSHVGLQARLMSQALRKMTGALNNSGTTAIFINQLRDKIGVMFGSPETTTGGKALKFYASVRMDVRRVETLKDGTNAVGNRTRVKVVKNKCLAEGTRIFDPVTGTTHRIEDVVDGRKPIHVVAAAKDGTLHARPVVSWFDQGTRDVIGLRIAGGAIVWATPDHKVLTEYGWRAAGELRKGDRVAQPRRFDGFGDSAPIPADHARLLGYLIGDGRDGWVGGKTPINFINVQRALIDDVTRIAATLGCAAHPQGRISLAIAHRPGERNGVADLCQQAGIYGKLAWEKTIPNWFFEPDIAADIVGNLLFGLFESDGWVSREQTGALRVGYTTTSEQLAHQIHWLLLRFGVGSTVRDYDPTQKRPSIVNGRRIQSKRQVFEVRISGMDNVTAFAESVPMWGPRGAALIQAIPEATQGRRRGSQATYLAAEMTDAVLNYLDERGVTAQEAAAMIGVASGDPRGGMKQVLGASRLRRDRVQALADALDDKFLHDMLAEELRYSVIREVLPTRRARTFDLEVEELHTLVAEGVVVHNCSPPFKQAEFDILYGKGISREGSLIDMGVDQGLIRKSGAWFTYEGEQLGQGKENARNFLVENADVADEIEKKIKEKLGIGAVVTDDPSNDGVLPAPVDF
# [18] = target: Large T antigen (Simian virus 40, UniProt P03070); type: functional, Betapolyomavirus macacae;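 further: Confirmatory-stage PubChem screen for compounds that inhibit SV40 T antigen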
# [19] = target: Nucleotide-binding oligomerization domain-containing protein 1 (Homo sapiens, UniProt Q9Y239); test: blockers of NOD1 pathway activity – revised, SAR follow-up (AID 2333); type: functional
# [20] = target: Tumor necrosis factor (Homo sapiens, UniProt P01375); test: analog potency on TNFa NF-kB signaling – cell-based, revised, SAR follow-up (AID 2337); type: functional
# [21] = tested on: HEK293; test: cells; conditions: Homo sapiens;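 further: cells exposed to compound for 14 hours overnight before viability readout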
# [22] = tested on: HeLa; test: ATP-based viability loss in HeLa cells – cell-based, CellTiter-Glo luminescence, cherry-pick samples, cytotoxicity control for MITF activator project, dose response (AID 540259); type: functional; conditions: Homo sapiens
structure (smiles),measurement,setting,value
CCC(C)n1cnc2c(c1=O)c1nc3ccccc3nc1n2Cc1ccc(OC)cc1 (configuration not stated),EC50,[1],> 260 µM (inactive)
same,EC50,[2],14.7 µM (active)
same,EC50,[3],> 180 µM (inactive)
same,EC50,[4],0.356 µM (active)
same,EC50,[5],47.7 µM (active)
CC1CCCN(c2ncnc3c2cnn3-c2ccc(Cl)cc2)C1 (configuration not stated),AC50,[6],1.34 µM (active)
same,AC50,[7],< 0.068 µM (active)
same,EC50,[8],< 0.16 µM (active)
same,AC50,[9],> 52 µM (inactive)
same,AC50,[10],0.155 µM (active)
same,IC50,[11],> 80 µM (inactive)
same,AC50,[12],> 52 µM (inactive)
Oc1cc(O)c2c(c1)O[C@H](c1ccc(O)c(O)c1)[C@@H](O)C2,AC50,[13],22.2 µM (active)
same,IC50,[14],> 100 µM (inactive)
same,IC50,[15],37.1 µM (active)
same,IC50,[16],15.5 µM (active)
same,EC50,[17],4.11 µM (active)
same,IC50,[18],11.4 µM (active)
COc1ccc(N2CCN(S(=O)(=O)c3ccc4c(c3)CC(C)N4C(=O)C3CC3)CC2)cc1 (configuration not stated),IC50,[19],0.506 µM (active)
same,IC50,[20],3.85 µM (active)
same,IC50,[21],> 20 µM (inactive)
COc1ccc(COc2ccc3ccc(=O)oc3c2)cc1,AC50,[22],93.8 µM (active)
